Measured values: patent publication US11591336B2 (Relay Therapeutics, Inc., priority 2017, dated 2023)
Structures can show the parent of a compound that is named as a salt.

Molecular target: SHP2 (Homo sapiens (Human), UniProt Q06124)
Assay: SHP2 Allosteric Inhibition Assay (DiFMUP prompt fluorescence)
Format: biochemical
Details: 0.25 nM SHP2 activated with 0.5 μM peptide IRS1_pY1172(dPEG8)pY1222; substrate DiFMUP 100 μM; 25° C.

IC50 [nM]	SMILES
< 1000	C[C@@H]1OCC2(CCN(c3cnc4c(N5CCCc6c(CC#N)cccc65)n[nH]c4n3)CC2)[C@@H]1N [Compound 441]
< 1000	C[C@@H]1OCC2(CCN(c3cnc4c(N5CCCc6c5cccc6S(=O)(=O)C5COC5)n[nH]c4n3)CC2)[C@@H]1N [Compound 464]
< 1000	CN1CCN(c2n[nH]c3nc(N4CCC(C)(CN)CC4)cnc23)c2ccc(Cl)nc21 [Compound 195]
< 1000	C[C@@H]1OCC2(CCN(c3cnc4c(N5CCCc6nc(-c7ncco7)ccc65)n[nH]c4n3)CC2)[C@@H]1N [Compound 295, (3S,4S)-3-methyl-8-(3-(6-(oxazol-2-yl)-3,4-dihydro-1,5-naphthyridin-1(2H)-yl)-1H-pyrazolo[3,4-b]pyrazin-6-yl)-2-oxa-8-azaspiro[4.5]decan-4-amine]
< 1000	Cc1ccncc1-c1cccc2c1CCCN2c1n[nH]c2nc(N3CCC(C)(N)CC3)cnc12 [Compound 67]
< 1000	C[C@@H]1OCC2(CCN(c3cnc4c(N5CCCc6nc(-c7cnn(C)c7)ccc65)n[nH]c4n3)CC2)[C@@H]1N [Compound 224, (3S,4S)-3-methyl-8-(3-(6-(1-methyl-1H-pyrazol-4-yl)-3,4-dihydro-1,5-naphthyridin-1(2H)-yl)-1H-pyrazolo[3,4-b]pyrazin-6-yl)-2-oxa-8-azaspiro[4.5]decan-4-amine]
< 1000	CC1(N)CCN(c2cnc3c(N4CCCn5nccc54)n[nH]c3n2)CC1 [Compound 22]
< 1000	C[C@H]1CCN(c2n[nH]c3nc(N4CCC5(CC4)COC[C@H]5N)cnc23)c2ccc(-c3ncon3)cc21 [Compound 299, (4S)-8-{3-[(4S)-4-methyl-6-(1,2,4-oxadiazol-3-yl)-1,2,3,4-tetrahydroquinolin-1-yl]-1H-pyrazolo[3,4-b]pyrazin-6-yl}-2-oxa-8-azaspiro[4.5]decan-4-amine]
< 1000	CC1(N)CCN(c2cnc3c(Sc4ccncc4)n[nH]c3n2)CC1 [Compound 486, 4-methyl-1-(3-(pyridin-4-ylthio)-1H-pyrazolo[3,4-b]pyrazin-6-yl)piperidin-4-amine]
< 1000	C/C(=N/O)c1ccc2c(n1)CCCN2c1n[nH]c2nc(N3CCC4(CC3)CO[C@@H](C)[C@H]4N)cnc12 [Compound 397, (3,4S)-8-(3-{6-[(1Z)-1-(hydroxyimino)ethyl]-1,2,3,4-tetrahydro-1,5-naphthyridin-1-yl}-1H-pyrazolo[3,4-b]pyrazin-6-yl)-3-methyl-2-oxa-8-azaspiro[4.5]decan-4-amine]
< 1000	CC1(CN)CCN(c2cnc3c(N4CCc5c(-c6nccs6)cccc54)n[nH]c3n2)CC1 [Compound 173]
< 1000	CC(=O)N1CCN(c2n[nH]c3nc(N4CCC(C)(N)CC4)cnc23)c2ccccc21 [Compound 56]
1000 to 10000	CC1(N)CCN(c2cnc3c(Sc4ccc[nH]c4=O)n[nH]c3n2)CC1 [Compound 475, 3-((6-(4-amino-4-methylpiperidin-1-yl)-1H-pyrazolo[3,4-b]pyrazin-3-yl)thio)pyridin-2(1H)-one]
≥ 10000	c1ccc(C2CCCCN2c2cnc3c(N4CCCc5ncccc54)n[nH]c3n2)cc1 (stereo not shown) [Compound 162]
< 1000	COc1cccc2c1CCCN2c1n[nH]c2nc(N3CCC(C)(CN)CC3)cnc12 [Compound 57]
< 1000	CC1(CN)CCN(c2cnc3c(Sc4ccccc4Cl)n[nH]c3n2)CC1 [Compound 9, (1-(3-((2-chlorophenyl)thio)-1H-pyrazolo[3,4-b]pyrazin-6-yl)-4-methylpiperidin-4-yl)methanamine]
< 1000	CNC(=O)c1ccc2c(c1)[C@@H](C)CCN2c1n[nH]c2nc(N3CCC4(CC3)CO[C@@H](C)[C@H]4N)cnc12 [Compound 288, (4S)-1-{6-[(3S,4S)-4-amino-3-methyl-2-oxa-8-azaspiro[4.5]decan-8-yl]-1H-pyrazolo[3,4-b]pyrazin-3-yl}-N,4-dimethyl-1,2,3,4-tetrahydroquinoline-6-carboxamide]
< 1000	CC1(CN)CCN(c2cnc3c(N4CCC(C#N)c5ccccc54)n[nH]c3n2)CC1 (stereo not shown) [Compound 117]
< 1000	C[C@@H]1OCC2(CCN(c3cnc4c(N5CC[C@H](C)c6nc(-c7nnc[nH]7)ccc65)n[nH]c4n3)CC2)[C@@H]1N [Compound 454, (3S,4S)-3-methyl-8-{3-[(4S)-4-methyl-6-(4H-1,2,4-triazol-3-yl)-1,2,3,4-tetrahydro-1,5-naphthyridin-1-yl]-1H-pyrazolo[3,4-b]pyrazin-6-yl}-2-oxa-8-azaspiro[4.5]decan-4-amine]
< 1000	C[C@@H]1OCC2(CCN(c3cnc4c(N5CC[C@H](C)c6nc(C(=O)N(C)C)ccc65)n[nH]c4n3)CC2)[C@@H]1N [Compound 364, (8S)-5-{6-[(3S,4S)-4-amino-3-methyl-2-oxa-8-azaspiro[4.5]decan-8-yl]-1H-pyrazolo[3,4-b]pyrazin-3-yl}-N,N,8-trimethyl-5,6,7,8-tetrahydro-1,5-naphthyridine-2-carboxamide]
< 1000	Cc1ccc2c(c1)CCCN2c1n[nH]c2nc(N3CCC4(CC3)CO[C@@H](C)[C@H]4N)cnc12 [Compound 354]

IC50 [nM]	SMILES
< 1000	CC(C)S(=O)(=O)c1cccc2c1CCCN2c1n[nH]c2nc(N3CCC4(CC3)CO[C@@H](C)[C@H]4N)cnc12 [Compound 456]
< 1000	CC1(CN)CCN(c2cnc3c(Sc4ccccc4)n[nH]c3n2)CC1 [Compound 7, (4-methyl-1-(3-(phenylthio)-1H-pyrazolo[3,4-b]pyrazin-6-yl)piperidin-4-yl)methanamine]
< 1000	CC1(CN)CCN(c2cnc3c(N4CCC(C)(C)c5ccccc54)n[nH]c3n2)CC1 [Compound 88]
< 1000	Cc1ccc2c(c1S(C)(=O)=O)CCCN2c1n[nH]c2nc(N3CCC4(CC3)CO[C@@H](C)[C@H]4N)cnc12 [Compound 345]
< 1000	C[C@@H]1OCC2(CCN(c3cnc4c(N5CC[C@H](C)c6c(-c7cnn(C)c7)cccc65)n[nH]c4n3)CC2)[C@@H]1N [Compound 278]
< 1000	C[C@@H]1OCC2(CCN(c3cnc4c(N5CCCc6c5ccc(C#N)c6CC#N)n[nH]c4n3)CC2)[C@@H]1N [Compound 528]
≥ 10000	c1ccc(C2CCCN2c2cnc3c(N4CCCc5ncccc54)n[nH]c3n2)cc1 (stereo not shown) [Compound 147]
< 1000	CC1(CNC(=O)OCCSSCCOC(=O)NCC2(C)CCN(c3cnc4c(N5CCCc6ncccc65)n[nH]c4n3)CC2)CCN(c2cnc3c(N4CCCc5ncccc54)n[nH]c3n2)CC1 [Compound 166, disulfanediylbis(ethane-2,1-diyl) bis(((1-(3-(3,4-dihydro-1,5-naphthyridin-1(2H)-yl)-1H-pyrazolo[3,4-b]pyrazin-6-yl)-4-methylpiperidin-4-yl)methyl)carbamate)]
< 1000	C[C@@H]1OCC2(CCN(c3cnc4c(N5CC[C@H](C)c6nc(C(=O)NCCO)ccc65)n[nH]c4n3)CC2)[C@@H]1N [Compound 447]
< 1000	CCCC1(CN)CCN(c2cnc3c(N4CCCc5ncccc54)n[nH]c3n2)CC1 [Compound 97, (1-(3-(3,4-dihydro-1,5-naphthyridin-1(2H)-yl)-1H-pyrazolo[3,4-b]pyrazin-6-yl)-4-propylpiperidin-4-yl)methanamine dihydrochloride]
< 1000	C[C@@H]1Cc2ccccc2N1c1n[nH]c2nc(N3CCC(C)(CN)CC3)cnc12 [Compound 135]
< 1000	C[C@@H]1OCC2(CCN(c3cnc4c(N5CCCc6nc(CC#N)ccc65)n[nH]c4n3)CC2)[C@@H]1N [Compound 352]
< 1000	CNC(=O)c1ccc2c(c1)NCCN2c1n[nH]c2nc(N3CCC4(CC3)CO[C@@H](C)[C@H]4N)cnc12 [Compound 329, 1-{6-[(3S,4S)-4-amino-3-methyl-2-oxa-8-azaspiro[4.5]decan-8-yl]-1H-pyrazolo[3,4-b]pyrazin-3-yl}-N-methyl-1,2,3,4-tetrahydroquinoxaline-6-carboxamide]
< 1000	C[C@@H]1OCC2(CCN(c3cnc4c(N5CC[C@@H](C(F)F)c6cc(C#N)ccc65)n[nH]c4n3)CC2)[C@@H]1N [Compound 326]
< 1000	CNC(=O)c1ccc2c(c1)N(C)CCN2c1n[nH]c2nc(N3CCC4(CC3)CO[C@@H](C)[C@H]4N)cnc12 [Compound 366, 1-{6-[(3S,4S)-4-amino-3-methyl-2-oxa-8-azaspiro[4.5]decan-8-yl]-1H-pyrazolo[3,4-b]pyrazin-3-yl}-N,4-dimethyl-1,2,3,4-tetrahydroquinoxaline-6-carboxamide]
< 1000	C[C@@H]1OCC2(CCN(c3cnc4c(N5CCCc6c(N=S(C)(C)=O)cccc65)n[nH]c4n3)CC2)[C@@H]1N [Compound 418]
< 1000	C[C@@H]1OCC2(CCN(c3cnc4c(N5CCN(C)c6nc(-c7cnn(C)c7)ccc65)n[nH]c4n3)CC2)[C@@H]1N [Compound 310, (3S,4S)-3-methyl-8-(3-(4-methyl-6-(1-methyl-1H-pyrazol-4-yl)-3,4-dihydropyrido[2,3-b]pyrazin-1(2H)-yl)-1H-pyrazolo[3,4-b]pyrazin-6-yl)-2-oxa-8-azaspiro[4.5]decan-4-amine]
< 1000	C[C@@H]1CCN(c2n[nH]c3nc(N4CCC5(CC4)CO[C@@H](C)[C@H]5N)cnc23)c2ccc(-c3cnn(C)c3)nc21 [Compound 266, (3S,4S)-3-methyl-8-{3-[(4R)-4-methyl-6-(1-methyl-1H-pyrazol-4-yl)-1,2,3,4-tetrahydro-1,5-naphthyridin-1-yl]-1H-pyrazolo[3,4-b]pyrazin-6-yl}-2-oxa-8-azaspiro[4.5]decan-4-amine]
< 1000	C[C@@H]1OCC2(CCN(c3cnc4c(N5CCCc6nc(-c7ccnn7C)ccc65)n[nH]c4n3)CC2)[C@@H]1N [Compound 255, (3S,4S)-3-methyl-8-{3-[6-(1-methyl-1H-pyrazol-5-yl)-1,2,3,4-tetrahydro-1,5-naphthyridin-1-yl]-1H-pyrazolo[3,4-b]pyrazin-6-yl}-2-oxa-8-azaspiro[4.5]decan-4-amine hydrochloride]
< 1000	C[C@@H]1OCC2(CCN(c3cnc4c(N5CCCc6nc(-c7cnco7)ccc65)n[nH]c4n3)CC2)[C@@H]1N [Compound 318]
< 1000	CN=[S@](C)(=O)c1cccc2c1CCCN2c1n[nH]c2nc(N3CCC4(CC3)CO[C@@H](C)[C@H]4N)cnc12 [Compound 419]

SMILES	IC50 [nM]
Cc1nccc2c1CCCN2c1n[nH]c2nc(N3CCC4(CC3)CO[C@@H](C)[C@H]4N)cnc12 [Compound 233]	< 1000
